{"source": "patent US20240246937A1", "about": "(MERCK SHARP & DOHME LLC, priority 2021, published 2024)", "data": [{"molecular_target": "recombinant IL4I1 (Homo sapiens (Human), UniProt Q96RQ9)", "sequence (Q96RQ9 22-567)": "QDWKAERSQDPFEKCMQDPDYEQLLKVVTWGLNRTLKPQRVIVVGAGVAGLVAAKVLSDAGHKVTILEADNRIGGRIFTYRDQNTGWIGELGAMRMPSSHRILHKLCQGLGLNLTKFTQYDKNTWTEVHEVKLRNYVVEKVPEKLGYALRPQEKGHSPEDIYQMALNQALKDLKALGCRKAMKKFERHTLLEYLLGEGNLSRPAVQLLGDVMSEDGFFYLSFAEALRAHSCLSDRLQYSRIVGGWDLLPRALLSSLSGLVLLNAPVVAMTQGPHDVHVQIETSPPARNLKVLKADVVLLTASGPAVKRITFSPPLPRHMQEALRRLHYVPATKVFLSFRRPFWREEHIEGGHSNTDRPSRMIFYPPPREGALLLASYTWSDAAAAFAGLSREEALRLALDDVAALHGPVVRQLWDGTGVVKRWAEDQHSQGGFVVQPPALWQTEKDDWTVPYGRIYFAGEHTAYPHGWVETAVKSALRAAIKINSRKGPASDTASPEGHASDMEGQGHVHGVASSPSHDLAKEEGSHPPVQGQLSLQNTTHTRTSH", "experiment": "IL4I1 Enzymatic Assay (Amplex Red/HRP coupled fluorescence detection of H2O2)", "assay_type": "biochemical", "details": "240 min; recombinant IL4I1, four-hour pre-incubation with compound", "method_in_brief": "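Ten-point, 1:3 compound titrations were fitted by four-parameter sigmoidal regression to give EC50. Resorufin fluorescence (544/590 nm) from Amplex Red/HRP-coupled H2O2 detection was read 120 min after adding 1 mM each aromatic amino acid to 1 nM IL4I1, following a 4 h compound pre-incubation in pH 7.0 Hepes buffer.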", "units": {"EC50": "nM"}, "values": [{"smiles": "CC1(n2ccn(Cc3cc(-c4ccccc4)on3)c(=O)c2=O)CCC1", "note": "[Example 420, 1-(1-methylcyclobutyl)-4-((5-phenylisoxazol-3-yl)methyl)-1,4-dihydropyrazine-2,3-dione]", "EC50": 5}, {"smiles": "CC1(n2ccn(Cc3cc(-c4cccc(F)c4)on3)c(=O)c2=O)CCC1", "note": "[Example 421, 1-((5-(3-fluorophenyl)isoxazol-3-yl)methyl)-4-(1-methylcyclobutyl)-1,4-dihydropyrazine-2,3-dione]", "EC50": 5}, {"smiles": "CC1(n2ccn(Cc3cc(-c4ccc(F)cc4)on3)c(=O)c2=O)CCC1", "note": "[Example 422, 1-((5-(4-fluorophenyl)isoxazol-3-yl)methyl)-4-(1-methylcyclobutyl)-1,4-dihydropyrazine-2,3-dione]", "EC50": 5}, {"smiles": "N#Cc1ccc(-c2cc(CN3CCN(C45CC(C4)C5)C(=O)C3=O)no2)cc1", "note": "[Example 423, 4-(3-((4-(bicyclo[1.1.1]pentan-1-yl)-2,3-dioxopiperazin-1-yl)methyl)isoxazol-5-yl)benzonitrile]", "EC50": 19}, {"smiles": "N#Cc1ccccc1-c1cc(CN2CCN(C34CC(C3)C4)C(=O)C2=O)no1", "note": "[Example 424, 2-(3-((4-(bicyclo[1.1.1]pentan-1-yl)-2,3-dioxopiperazin-1-yl)methyl)isoxazol-5-yl)benzonitrile]", "EC50": 19}, {"smiles": "O=C1C(=O)N(C2CCC2)CCN1Cc1ncc(-c2cccc(F)c2)s1", "note": "[Example 425, 1-cyclobutyl-4-((5-(3-fluorophenyl)thiazol-2-yl)methyl)piperazine-2,3-dione]", "EC50": 8}, {"smiles": "O=C1C(=O)N(C2CCC2)CCN1Cc1ncc(-c2ccccc2F)s1", "note": "[Example 426, 1-cyclobutyl-4-((5-(2-fluorophenyl)thiazol-2-yl)methyl)piperazine-2,3-dione]", "EC50": 5}, {"smiles": "O=c1c(=O)n(C23CC(C2)C3)ccn1Cc1cn(-c2ccccn2)nn1", "note": "[Example 427, 1-(bicyclo[1.1.1]pentan-1-yl)-4-((1-(pyridin-2-yl)-1H-1,2,3-triazol-4-yl)methyl)-1,4-dihydropyrazine-2,3-dione]", "EC50": 19}, {"smiles": "O=c1c(=O)n(C23CC(C2)C3)ccn1Cc1cn(-c2cccnc2)nn1", "note": "[Example 428, 1-(bicyclo[1.1.1]pentan-1-yl)-4-((1-(pyridin-3-yl)-1H-1,2,3-triazol-4-yl)methyl)-1,4-dihydropyrazine-2,3-dione]", "EC50": 21}, {"smiles": "CC1(n2ccn(Cc3cn(-c4cccnc4)nn3)c(=O)c2=O)CC1", "note": "[Example 429, 1-(1-methylcyclopropyl)-4-((1-(pyridin-3-yl)-1H-1,2,3-triazol-4-yl)methyl)-1,4-dihydropyrazine-2,3-dione]", "EC50": 29}, {"smiles": "CC1(n2ccn(Cc3cn(-c4ccccn4)nn3)c(=O)c2=O)CC1", "note": "[Example 430, 1-(1-methylcyclopropyl)-4-((1-(pyridin-2-yl)-1H-1,2,3-triazol-4-yl)methyl)-1,4-dihydropyrazine-2,3-dione]", "EC50": 183}, {"smiles": "N#CC1(n2ccn(Cc3cn(-c4cccnc4)nn3)c(=O)c2=O)CC1", "note": "[Example 431, 1-(2,3-dioxo-4-((1-(pyridin-3-yl)-1H-1,2,3-triazol-4-yl)methyl)-3,4-dihydropyrazin-1(2H)-yl)cyclopropane-1-carbonitrile]", "EC50": 130}, {"smiles": "O=C1C(=O)N(C2CCC2)CCN1Cc1noc(-c2ccccn2)c1Br", "note": "[Example 432, 1-((4-bromo-5-(pyridin-2-yl)isoxazol-3-yl)methyl)-4-cyclobutylpiperazine-2,3-dione]", "EC50": 17}, {"smiles": "O=C1C(=O)N(c2ccccn2)CCN1Cc1ccc(-c2ccccc2)nn1", "note": "[Example 433, 1-((6-phenylpyridazin-3-yl)methyl)-4-(pyridin-2-yl)piperazine-2,3-dione]", "EC50": 37}, {"smiles": "O=C1C(=O)N(C2CC(O)C2)CCN1Cc1ccc(-c2ccccc2F)nn1", "note": "(centres unmarked) [Example 434, 1-((6-(2-fluorophenyl)pyridazin-3-yl)methyl)-4-(3-hydroxycyclobutyl)piperazine-2,3-dione]", "EC50": 71}, {"smiles": "N#Cc1ccccc1-c1nnc(CN2CCN(C34CC(C3)C4)C(=O)C2=O)s1", "note": "[Example 436, 2-(5-((4-(bicyclo[1.1.1]pentan-1-yl)-2,3-dioxopiperazin-1-yl)methyl)-1,3,4-thiadiazol-2-yl)benzonitrile]", "EC50": 20}, {"smiles": "O=C1C(=O)N(C23CC(C2)C3)CCN1Cc1cn(-c2ccccc2)nn1", "note": "[Example 439, 1-(bicyclo[1.1.1]pentan-1-yl)-4-((1-phenyl-1H-1,2,3-triazol-4-yl)methyl)piperazine-2,3-dione]", "EC50": 9}]}]}
